These results are taken from PubChem BioAssay AID624167 (Sanford-Burnham Center for Chemical Genomics, 2012).

Activity calls are given as the source filed them.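 Rule for the calls: active = mean IC50 for reducing PEG3 promoter reporter signal at or below a set limit, with IC50 above the limit in both counter screens; inactive = the rest, including counter screen hits.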

Common to all, as to test: inhibition of PEG-3 promoter-driven reporter – cell-based, HeLa, luciferase, CREF/GAPDH counter-screen panel, dose response (AID 624167)
(A counterscreen serves to expose hits that act by an unwanted route or on another target.)

The target of assay [1] is PEG-3 (UniProt Q6IN02). The note with it: HeLa PEG-Prom luciferase reporter, overnight, CREF/GAPDH counter-screens, mean of runs. A general note: In a reporter assay the amount or activity of a reporter protein is the signal.
Chain of PEG-3 (UniProt Q6IN02) (Q6IN02 whole entry, looked up): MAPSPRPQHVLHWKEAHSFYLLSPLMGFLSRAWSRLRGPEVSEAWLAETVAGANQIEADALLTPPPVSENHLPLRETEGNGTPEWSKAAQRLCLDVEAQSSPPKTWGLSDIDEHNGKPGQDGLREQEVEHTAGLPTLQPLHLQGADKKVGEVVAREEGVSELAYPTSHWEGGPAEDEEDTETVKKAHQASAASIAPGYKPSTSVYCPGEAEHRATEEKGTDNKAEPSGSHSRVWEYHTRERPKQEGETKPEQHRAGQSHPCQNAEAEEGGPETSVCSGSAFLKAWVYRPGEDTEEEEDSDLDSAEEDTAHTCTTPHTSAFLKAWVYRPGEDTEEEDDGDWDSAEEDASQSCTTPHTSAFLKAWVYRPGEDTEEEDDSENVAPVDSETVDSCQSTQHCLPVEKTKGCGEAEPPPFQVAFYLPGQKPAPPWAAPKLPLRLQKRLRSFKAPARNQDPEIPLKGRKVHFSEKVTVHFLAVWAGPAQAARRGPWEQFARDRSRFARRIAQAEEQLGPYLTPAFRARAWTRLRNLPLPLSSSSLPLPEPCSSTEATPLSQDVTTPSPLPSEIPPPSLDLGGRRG
For assay [2], the system named is PEG-3. The note with it: HeLa PEG-Prom luciferase reporter, overnight, CREF/GAPDH counter-screens.
The subject of the next assay is Rat fibroblasts (CREF). The settings on record: CREF/GAPDH counter-screens.
The mark [3] stands for this setting: run 1, dose range 1, individual replicate IC50 per panel.
Setting [4] is: run 2, dose range 1, individual replicate IC50 per panel.

Broadly, the IC50 is the concentration needed to halve the response being measured.

With `COc1ccc(-c2cc3nc(C)n(N)c(=O)c3s2)cc1`, the 50% inhibitory concentration (IC50) on PEG-3 [1] was 473 nM; in the assay with PEG-3 [2] (setting [3]), 657 nM; in the assay on PEG-3 [2] (setting [4]), 288 nM; in the assay on Rat fibroblasts (CREF) (mean of runs), 1090 nM; in the assay with Rat fibroblasts (CREF) (setting [3]) it was 1010 nM; in the assay with Rat fibroblasts (CREF) (setting [4]), 1160 nM.

For `COc1ccc(/C=N/Nc2nncc3ccccc23)cc1`, the half-inhibitory concentration (IC50) on PEG-3 [1] is 6520 nM; in the assay on PEG-3 [2] (setting [3]) it was 4620 nM; with PEG-3 [2] (setting [4]), 8430 nM; in the assay with Rat fibroblasts (CREF) (mean of runs), 835 nM; with Rat fibroblasts (CREF) (setting [3]) it was 957 nM; in the assay with Rat fibroblasts (CREF) (setting [4]), 712 nM.

For the compound `O=C1c2cccc3cc([N+](=O)[O-])cc(c23)C(=O)N1CCN1CCCC1`, the IC50 on PEG-3 [1] was 5570 nM; in the assay with PEG-3 [2] (setting [3]) it was 6200 nM; in the assay on PEG-3 [2] (setting [4]), 4940 nM; with Rat fibroblasts (CREF) (mean of runs), 4660 nM; in the assay on Rat fibroblasts (CREF) (setting [3]), 4170 nM; in the assay on Rat fibroblasts (CREF) (setting [4]), 5150 nM.

`Oc1c(Br)cc(Br)c2cccnc12`: the half-inhibitory concentration (IC50) at PEG-3 [1] is 6720 nM; in the assay on PEG-3 [2] (setting [3]), 4400 nM; in the assay on PEG-3 [2] (setting [4]), 9050 nM; in the assay with Rat fibroblasts (CREF) (mean of runs), 9010 nM; with Rat fibroblasts (CREF) (setting [3]) it was 11800 nM; with Rat fibroblasts (CREF) (setting [4]), 6270 nM.

For `CN(C)CCCN(C(=O)c1ccc(S(=O)(=O)N2CCc3ccccc3C2)cc1)c1nc2ccc(F)cc2s1`, the IC50 at PEG-3 [1] was 10000 nM; in the assay on PEG-3 [2] (setting [3]) it was 11300 nM; in the assay with PEG-3 [2] (setting [4]), 8740 nM; in the assay with Rat fibroblasts (CREF) (mean of runs) it was 13400 nM; with Rat fibroblasts (CREF) (setting [3]), 9840 nM; in the assay on Rat fibroblasts (CREF) (setting [4]), 17000 nM.

For the compound `COc1ccc(S(=O)(=O)/N=C2\C=C(Nc3ccc(O)cc3)C(=O)c3ccccc32)cc1`, the IC50 on PEG-3 [1] is 2580 nM; with PEG-3 [2] (setting [3]) it was 2500 nM; in the assay on PEG-3 [2] (setting [4]) it was 2650 nM; in the assay on Rat fibroblasts (CREF) (mean of runs), 1630 nM; in the assay with Rat fibroblasts (CREF) (setting [3]), 1380 nM; with Rat fibroblasts (CREF) (setting [4]), 1880 nM.

`CC(C)CC(=NNC(=O)c1ccncc1)c1cc(Cl)ccc1O`: the IC50 at PEG-3 [1] was 3410 nM; in the assay on PEG-3 [2] (setting [3]), 3350 nM; in the assay on PEG-3 [2] (setting [4]), 3460 nM; with Rat fibroblasts (CREF) (mean of runs) it was 10300 nM; in the assay on Rat fibroblasts (CREF) (setting [3]) it was 8210 nM; in the assay on Rat fibroblasts (CREF) (setting [4]) it was 12300 nM.

On to `c1ccc(-c2noc(-c3ccc4c(c3)OCO4)n2)nc1`, for which the half-inhibitory concentration (IC50) on PEG-3 [1] was 818 nM; with PEG-3 [2] (setting [3]), 622 nM; in the assay with PEG-3 [2] (setting [4]) it was 1010 nM; with Rat fibroblasts (CREF) (mean of runs), 694 nM; in the assay with Rat fibroblasts (CREF) (setting [3]) it was 309 nM; with Rat fibroblasts (CREF) (setting [4]) it was 1080 nM.

As to `CCOC(=O)c1cnc(Nc2nc3ccccc3o2)nc1C`, the IC50 at PEG-3 [1] is 1750 nM; in the assay on PEG-3 [2] (setting [3]), 1170 nM; with PEG-3 [2] (setting [4]) it was 2320 nM; in the assay with Rat fibroblasts (CREF) (mean of runs), 1320 nM; in the assay on Rat fibroblasts (CREF) (setting [3]) it was 1270 nM; in the assay on Rat fibroblasts (CREF) (setting [4]), 1370 nM.

As for `O=C(/C=C\Nc1ccc2c(c1)OCO2)c1ccccn1`, the IC50 on PEG-3 [1] was 1510 nM; with PEG-3 [2] (setting [3]) it was 1150 nM; with PEG-3 [2] (setting [4]), 1870 nM; with Rat fibroblasts (CREF) (mean of runs) it was 1090 nM; in the assay on Rat fibroblasts (CREF) (setting [3]) it was 1040 nM; with Rat fibroblasts (CREF) (setting [4]), 1140 nM.

As for `CC(=O)NC(c1ccc(N(C)C)cc1)c1cc(Cl)c2cccnc2c1O` (configuration not stated), the IC50 at PEG-3 [1] was 3760 nM; with PEG-3 [2] (setting [3]) it was 3140 nM; with PEG-3 [2] (setting [4]), 4370 nM; in the assay on Rat fibroblasts (CREF) (mean of runs), 53700 nM (inactive); with Rat fibroblasts (CREF) (setting [3]) it was more than 100000 nM; in the assay with Rat fibroblasts (CREF) (setting [4]), 7340 nM.

On to `COc1ccccc1C(=O)Nc1nc2ccccc2[nH]1`, for which the IC50 is 535 nM on PEG-3 [1]; 707 nM in the assay on PEG-3 [2] (setting [3]); 362 nM in the assay on PEG-3 [2] (setting [4]); 280 nM with Rat fibroblasts (CREF) (mean of runs); 226 nM with Rat fibroblasts (CREF) (setting [3]); 335 nM in the assay with Rat fibroblasts (CREF) (setting [4]).

On to `Clc1cccc(-c2nc(-c3ccccn3)no2)c1`, for which the IC50 at PEG-3 [1] is 4800 nM; with PEG-3 [2] (setting [3]), 3680 nM; with PEG-3 [2] (setting [4]), 5920 nM; in the assay with Rat fibroblasts (CREF) (mean of runs), 2230 nM; in the assay on Rat fibroblasts (CREF) (setting [3]), 1820 nM; in the assay with Rat fibroblasts (CREF) (setting [4]) it was 2630 nM.

With `CCC1(OC(=O)CN)C(=O)OCc2c1cc1n(c2=O)Cc2cc3ccccc3nc2-1` (configuration not stated), the half-maximal inhibitory concentration (IC50) was 3340 nM on PEG-3 [1]; 3800 nM in the assay with PEG-3 [2] (setting [3]); 2880 nM in the assay on PEG-3 [2] (setting [4]); 1380 nM in the assay on Rat fibroblasts (CREF) (mean of runs); 1070 nM with Rat fibroblasts (CREF) (setting [3]); 1690 nM in the assay on Rat fibroblasts (CREF) (setting [4]).

As to `Cc1nn(-c2nc3ccccc3[nH]2)c(=O)c2ccccc12`, the IC50 at PEG-3 [1] is 491 nM; in the assay with PEG-3 [2] (setting [3]), 510 nM; in the assay with PEG-3 [2] (setting [4]), 471 nM; in the assay on Rat fibroblasts (CREF) (mean of runs), 331 nM; with Rat fibroblasts (CREF) (setting [3]) it was 351 nM; in the assay with Rat fibroblasts (CREF) (setting [4]), 311 nM.

On to `O=C(CNCCC1=CCCCC1)Nc1ccc(N2CCCCCC2)cc1`, for which the IC50 is 9980 nM on PEG-3 [1]; 10600 nM in the assay on PEG-3 [2] (setting [3]); 9370 nM in the assay with PEG-3 [2] (setting [4]); 16600 nM in the assay with Rat fibroblasts (CREF) (mean of runs); 16500 nM in the assay on Rat fibroblasts (CREF) (setting [3]); 16800 nM in the assay with Rat fibroblasts (CREF) (setting [4]).

For the compound `S=C(NN=C(c1ccccc1)c1ccccn1)N(Cc1ccccn1)Cc1ccccn1`, the IC50 at PEG-3 [1] is 2190 nM; in the assay with PEG-3 [2] (setting [3]) it was 2580 nM; in the assay on PEG-3 [2] (setting [4]), 1800 nM; with Rat fibroblasts (CREF) (mean of runs) it was 6990 nM; in the assay on Rat fibroblasts (CREF) (setting [3]) it was 4590 nM; in the assay on Rat fibroblasts (CREF) (setting [4]), 9400 nM.
